Biological target: human F508del-CFTR (Homo sapiens, UniProt P13569, DEL508-508)
Assay: F508del-CFTR cell surface expression (corrector activity), DiscoveRx ß-galactosidase complementation chemiluminescence assay in recombinant U2OS cell line;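 note: U2OS cells co-expressing ProLink-tagged F508del-CFTR and a membrane-anchored enzyme acceptor, where more surface CFTR restores β-galactosidase activity measured by chemiluminescence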
Conditions: for EC50: EC50, F508del-CFTR cell surface expression; for Emax: U2OS
[1] = U2OS cells, 16h compound incubation, geomean values
[2] = in relation to Emax of corrector lumacaftor (=100%), arithmetic mean values
[3] = U2OS cell line, 16h compound incubation, geomean values

Chain of human F508del-CFTR (P13569 with tags, fused parts or gaps DEL508-508): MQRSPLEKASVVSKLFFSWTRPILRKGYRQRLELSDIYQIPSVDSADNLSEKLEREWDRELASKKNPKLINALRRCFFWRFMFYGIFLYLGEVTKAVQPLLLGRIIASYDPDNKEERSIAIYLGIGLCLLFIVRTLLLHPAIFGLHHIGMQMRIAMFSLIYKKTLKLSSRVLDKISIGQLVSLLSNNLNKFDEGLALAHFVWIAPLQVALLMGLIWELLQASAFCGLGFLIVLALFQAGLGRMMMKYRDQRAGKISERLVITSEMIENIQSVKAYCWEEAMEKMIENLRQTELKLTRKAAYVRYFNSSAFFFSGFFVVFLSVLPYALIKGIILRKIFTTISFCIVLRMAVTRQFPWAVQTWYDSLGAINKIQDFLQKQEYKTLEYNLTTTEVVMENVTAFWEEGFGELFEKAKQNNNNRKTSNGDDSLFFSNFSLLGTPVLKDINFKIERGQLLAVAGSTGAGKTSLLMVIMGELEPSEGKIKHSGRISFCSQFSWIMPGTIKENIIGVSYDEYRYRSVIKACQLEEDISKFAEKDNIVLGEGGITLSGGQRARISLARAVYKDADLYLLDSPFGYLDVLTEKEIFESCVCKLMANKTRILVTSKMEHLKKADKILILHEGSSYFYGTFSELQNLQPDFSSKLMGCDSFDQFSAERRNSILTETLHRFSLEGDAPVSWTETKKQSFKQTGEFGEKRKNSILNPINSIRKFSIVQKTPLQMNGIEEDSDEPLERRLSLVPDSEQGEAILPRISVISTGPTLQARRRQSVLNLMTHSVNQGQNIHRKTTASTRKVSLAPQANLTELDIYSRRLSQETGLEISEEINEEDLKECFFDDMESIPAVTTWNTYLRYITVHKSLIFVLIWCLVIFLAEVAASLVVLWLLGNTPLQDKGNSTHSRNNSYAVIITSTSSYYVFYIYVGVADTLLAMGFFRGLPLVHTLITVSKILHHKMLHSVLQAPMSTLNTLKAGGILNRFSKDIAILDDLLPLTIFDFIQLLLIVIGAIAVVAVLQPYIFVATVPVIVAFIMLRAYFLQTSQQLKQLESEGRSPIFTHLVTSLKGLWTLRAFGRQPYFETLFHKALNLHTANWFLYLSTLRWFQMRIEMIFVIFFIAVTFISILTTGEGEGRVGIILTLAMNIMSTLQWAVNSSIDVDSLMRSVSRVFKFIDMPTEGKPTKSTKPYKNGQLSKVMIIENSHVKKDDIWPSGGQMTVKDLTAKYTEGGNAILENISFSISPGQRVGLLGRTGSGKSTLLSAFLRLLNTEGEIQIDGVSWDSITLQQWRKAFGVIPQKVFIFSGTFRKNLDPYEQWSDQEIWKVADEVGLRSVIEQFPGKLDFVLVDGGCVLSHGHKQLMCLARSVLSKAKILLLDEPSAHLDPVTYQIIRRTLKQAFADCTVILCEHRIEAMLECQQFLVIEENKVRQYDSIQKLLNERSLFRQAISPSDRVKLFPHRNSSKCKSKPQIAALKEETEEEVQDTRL

| SMILES | EC50 [1] [µM] | Emax [2] [%] | EC50 [3] [µM] | also measured |
| --- | --- | --- | --- | --- |
| Cc1cc(CCNC(=O)[C@@H]2CC(=O)N(C)[C@@H](CC(C)C)C(=O)N3CCCC[C@@H]3C(=O)N[C@H](Cc3ccccc3)COc3ccc4ncccc4c3C(=O)N2)on1 [Example 474, (9S,13S,19aR,22R)-22-benzyl-13-isobutyl-12-methyl-N-(2-(3-methylisoxazol-5-yl)ethyl)-7,11,14,20-tetraoxo-7,8,9,10,11,12,13,14,17,18,19,19a,20,21,22,23-hexadecahydro-16H-pyrido[2′,11:6,7][1]oxa[4,7,10,14]tetraazacycloheptadecino[16,17-f]quinoline-9-carboxamide] | 0.478 | 359 |  |  |
| CC(C)C[C@H]1C(=O)N(C)[C@H](Cn2cc(-c3ccc(F)cn3)nn2)C(=O)N[C@H](Cc2ccccc2)COc2cnc3ccc(F)cc3c2C(=O)N[C@H](C(=O)NCCc2noc(C3CC3)n2)CC(=O)N1C [Example 885, (3S,7S,10R,13R)-13-benzyl-N-(2-(5-cyclopropyl-1,2,4-oxadiazol-3-yl)ethyl)-20-fluoro-10-((4-(5-fluoropyridin-2-yl)-1H-1,2,3-triazol-1-yl)methyl)-7-isobutyl-6,9-dimethyl-1,5,8,11-tetraoxo-1,2,3,4,5,6,7,8,9,10,11,12,13,14-tetradecahydro-[1]oxa[4,7,10,14]tetraazacycloheptadecino[17,16-c]quinoline-3-carboxamide] |  |  |  | EC50 (U2OS cells, 16h compound incubation, geomean of several measurements): 0.078 µM; Emax (in relation to the Emax of the corrector lumacaftor (=100%), U2OS cells, 16h compound incubation, arithmetic mean): 328% |
| CC(C)C[C@H]1C(=O)N2CCCC[C@@H]2C(=O)N[C@H](Cc2ccccc2)COc2ccc3ncccc3c2C(=O)N[C@H](C(=O)NCCc2ccc(-n3nccn3)cc2)CC(=O)N1C [Example 472, (9S,13S,19aR,22R)-N-(4-(2H-1,2,3-triazol-2-yl)phenethyl)-22-benzyl-13-isobutyl-12-methyl-7,11,14,20-tetraoxo-7,8,9,10,11,12,13,14,17,18,19,19a,20,21,22,23-hexadecahydro-16H-pyrido[2′,1′:6,7][1]oxa[4,7,10,14]tetraazacycloheptadecino[16,17-f]quinoline-9-carboxamide] | 0.284 | 239 |  |  |
| COc1cc2c(cc1OC)C(=O)N[C@H](C(=O)NCCc1ccc3c(c1)CCO3)CC(=O)N(C)[C@@H](CC(C)C)C(=O)N(C)CC(=O)N[C@H](Cc1ccccc1)CO2 (mixture of isomers) [Example 152, (3R,9S,13RS)-3-benzyl-N-(2-(2,3-dihydrobenzofuran-5-yl)ethyl)-9-isobutyl-17,18-dimethoxy-7,10-dimethyl-5,8,11,15-tetraoxo-2,3,4,5,6,7,8,9,10,11,12,13,14,15-tetradecahydrobenzo[p][1]oxa[4,7,10,14]tetraazacycloheptadecine-13-carboxamide] |  |  | 0.668 |  |

Now from value to molecule, other results behind:

| EC50 [1] [µM] | Emax [2] [%] | EC50 [3] [µM] | SMILES | also measured |
| --- | --- | --- | --- | --- |
|  |  | 0.268 | COc1cccc2c1C(=O)N[C@H](C(=O)NCCc1ccc3c(c1)COC3)CC(=O)N(C)[C@@H](CC(C)C)C(=O)N(CCC1CCCCC1)CC(=O)N[C@H](Cc1ccccc1)CO2 (racemic) [Example 13, (3R,9S,13RS)-3-benzyl-7-(2-cyclohexylethyl)-N-(2-(1,3-dihydroisobenzofuran-5-yl)ethyl)-9-isobutyl-16-methoxy-10-methyl-5,8,11,15-tetraoxo-2,3,4,5,6,7,8,9,10,11,12,13,14,15-tetradecahydrobenzo[p][1]oxa[4,7,10,14]tetraazacycloheptadecine-13-carboxamide] | Emax (in relation to the Emax of the corrector lumacaftor (=100%), U2OS cell line, 16h compound incubation, arithmetic mean values): 153% |
| 0.961 | 109 |  | Cc1cc(CCNC(=O)[C@@H]2CC(=O)N(C)[C@@H](CC(C)C)C(=O)N(C)C3(CC3)C(=O)N[C@H](Cc3ccccc3)COc3nc4ccccn4c3C(=O)N2)on1 [Example 448, (3′R,9′S,13′S)-3′-benzyl-9′-isobutyl-7′,10′-dimethyl-N-(2-(3-methylisoxazol-5-yl)ethyl)-5′,8′,11′,15′-tetraoxo-2′,3′,4′,5′,8′,9′,10′,11′,12′,13′,14′,15′-dodecahydro-7′H-spiro[cyclopropane-1,6′-pyrido[2′,11:2,3]imidazo[4,5-p][1]oxa[4,7,10,14]tetraazacycloheptadecine]-13′-carboxamide] |  |

Reference: US20240208992A1, “MACROCYCLES AS CFTR MODULATORS” (Idorsia Pharmaceuticals Ltd, priority 2021, published 2024)
